Measured values from patent publication US12404332B2, “Methods for diagnosing and treating cancers” (Research Development Foundation, priority 2020, dated 2025).
Entries after “also recorded” stand apart in the source; their conditions may differ.

Tests used:
Chk2 = Chk2 protein content by immunoblot in B16-F10 cells; type: cell-based, mouse; conditions: PD-L1^KO but not CTRL B16-F10 cells
[1] = test system: RT4 human bladder cancer cells; experiment: In vitro viability (MTT) of CTRL versus PD-L1^KO RT4 cells; type: cell-based; conditions: for sensitivity of PD-L1^KO versus control RT4 cells to the agent: monotherapy
Method: (§1) Cells (1×10^3) were plated in 96 well plastic culture plates in respective medium and treated for 5 days with DDRi or 3 days with gemcitabine at indicated concentrations. Drug concentrations were carefully optimized in preliminary work not shown. Cell viability was by MTT (3-(4,5-dimethylthiazol-2-yl)-2,5-diphenyl tetrazolium bromide) at 5 mg/ml. Absorbance was measured at 540 nm. Results are presented as a mean+/−SEM of ≥6 replicates. Total cells and viability were confirmed using a Vi-Cell-XR (Beckman Coulter).

[2] = test system: ID8agg murine ovarian cancer cells; experiment: In vitro viability (MTT) of CTRL versus PD-L1^KO ID8agg cells; type: cell-based, mouse; conditions: for sensitivity of PD-L1^KO versus control ID8agg cells to the agent: monotherapy
Method: as §1

[3] = test system: 4T1 murine breast cancer cells; experiment: In vitro viability (MTT) of CTRL versus PD-L1^lo 4T1 cells; type: cell-based, mouse; conditions: listed as Chk1i
Method: as §1

[4] = test system: B16 murine melanoma cells; experiment: In vitro viability (MTT) of CTRL versus PD-L1^KO B16 cells; type: cell-based, mouse
Method: as §1

[5] = test system: human MDA-MB-231 triple negative breast cancer cells; experiment: In vitro sensitivity of PD-L1^lo versus CTRL MDA-MB-231 cells; type: cell-based
[6] = test system: CTRL or PD-L1^lo 4T1 tumors; experiment: 4T1 tumor growth in NSG mice; type: in vivo, mouse; conditions: PD-L1^lo but not control 4T1 tumors, NSG females
Method: (§2) NSG mice were challenged with MB49 (0.3×10^6 cells) subcutaneously on opposite flanks. Olaparib (daily 25 mg/kg, 4% DMSO) was injected intraperitoneally on days 3-11. 4T1 (0.5×10^6 cells) were injected into mammary fat pads of NSG mice with Matrigel (1:1, Corning). Rabusertib (LY2602618, 4% DMSO) was administered intraperitoneally on day 3 (10 mg/kg) and days 10 and 17 (1 mg/kg).

[7] = test system: UV induced TpN^61R derived CD274^+/+ or CD274^−/− melanoma cells; experiment: Viability of de novo Nras CD274^+/+ versus CD274^−/− melanoma cells; type: cell-based, mouse; conditions: in vitro
Text: (§3) FIGS. 26A-H: De novo PD-L1^KO tumors phenocopy important aspects of genetic PD-L1 depletion in established tumors. FIG. 26A, Melanoma-free survival of melanocyte specific CD274^fl,fl TpN^61R (KO) versus littermate (WT) autochthonous mice under conditions shown. FIG. 26B, Validation of PD-L1 expression by immunoblot (IB) of melanoma cells derived from UV induced (4.5 Kj/m^2) WT (CD274^+/+) or melanocyte specific CD274^KO (CD274^−/−) mice±in vitro interferon (IFN)-γ treatment. Viability curves of CD274^+/+ versus CD274^−/− cells treated with the selective Chk1 inhibitors FIG. 26C, prexasertib […] or FIG. 26D, rabusertib (LY2603618) in vitro at indicated concentrations. FIG. 26E, IB analysis of PD-L1, ATM, Chk2, and γH2AX of vehicle or rabusertib-treated CD274^+/+ and CD274^−/− cell lines. FIGS. 26F-H, Tumor growth curves in WT C57BL/6J mice (n=10 tumors/group) challenged with UV induced TpN^61R derived CD274^+/+ or CD274^−/− melanoma cells and treated with rabusertib (Chk1i, LY2603618) on the indicated treatment schedule. P values, two-way ANOVA.

[8] = test system: TpN^61R derived CD274^+/+ or CD274^−/− melanoma tumors; experiment: Growth of de novo PD-L1 null versus replete melanoma in C57BL/6J mice; type: in vivo, mouse; conditions: C57BL/6J wild type mice
Text: as §3

[9] = test system: CTRL and PD-L1^KO RT4 cells; experiment: Viability of RT4 cells treated with Chk1 inhibitor plus atezolizumab; type: cell-based, human; conditions: in vitro, absence of immune cells
Method: (§4) FIGS. 27A-H: Anti-PD-L1 antibodies mimic genetic PD-L1 depletion to impair tumor cell-intrinsic DDR signals and promote sensitivity to Chk1 inhibition in vitro and in vivo. Cell viability of FIG. 27A, CTRL and FIG. 27B, PD-L1^KORT4 cells treated with LY2603618 (Chk1 inhibitor) as shown plus IgG1 isotype or atezolizumab (atezo, 3 μg/ml) for 72 hours in vitro. Mean+SEM, n=6 replicates, ***, P<0.001, unpaired t-test. FIG. 27C, Immunoblot (IB) analysis of ATM, Chk2, γH2AX and vinculin (VINC) of RT4 cells treated in vitro with isotype, atezolizumab, Chk1i, or their combination. FIG. 27D, Viability of 4T1 cells as in panel A substituting anti-murine PD-L1 and isotype controls. FIG. 27E, IB of 4T1 as in panel FIG. 27C. FIG. 27F, Tumor curves of NSG mice (n=10 tumors/group) challenged with 4T1 tumor cells and treated with Chk1i±αPD-L1. FIG. 27G, Tumor curves and FIG. 27H, tumor weights in WT […] mice challenged and treated as in panel FIG. 27F. P values, two-way ANOVA.

4T1 tumors = 4T1 tumors in mice treated with Chk1i ± αPD-L1; type: in vivo, mouse; conditions: wild type mice
Method: as §4

PD-L1 = PD-L1 after DNA damaging agents; type: cell-based
γH2AX in RT4 cells = experiment: γH2AX immunoblot (DNA damage) in RT4 cells; type: cell-based, human
Method: (§5) Immunoblotting was performed as described (Clark et al., 2016; Gupta et al., 2016). Protein was measured by BCA (ThermoFisher). Cell Signaling antibodies were phospho-histone H2A.X (#9718), phospho-Chk1^Ser345 (#2348), phosph-Chk2^Thr68 (#2197), phospho-ATM^Ser1981 (#5883), phospho-ATR^Ser428 (#2853), total-Chk1 (#2360), total-chk2 (#2662), total-ATM (#2873), total-ATR (#13934), total-NBS1 (#14956), total-Rad50 (#3427), RAD51, vinculin (#13901), beta-actin (#12620), human-PD-L1 (#13684), mouse-PD-L1. Abcam antibodies were (ab3801) and (ab80276) and total-BRCA1 was R&D MAB22101. All were used as per manufacturer's recommendation.

γH2AX in ID8agg cells = experiment: γH2AX immunoblot (DNA damage) in ID8agg cells; type: cell-based, mouse
Method: as §5

ID8agg cells = experiment: Erlotinib plus olaparib in ID8agg cells (MTT); type: cell-based, mouse
Method: 1,000 ID8agg cells were plated per well in 96 well plates. Cells were treated with 1, 2, or 3 μM of erlotinib and 5 μM or olaparib.

[10] = test system: MB49 murine bladder cancer cells; experiment: In vitro viability (MTT) of CTRL versus PD-L1^KO MB49 cells; type: cell-based, mouse
Method: as §1

[11] = test system: CTRL or PD-L1^KO MB49 tumors; experiment: MB49 tumor growth in NSG mice; type: in vivo, mouse; conditions: PD-L1^KO but not control MB49 tumors
Method: as §2

[12] = test system: CTRL or PD-L1^KO B16 tumors; experiment: B16 tumor growth in wild type or RAG2^KO mice; type: in vivo, mouse
Method: B16 cells were injected subcutaneously on opposite flanks into BL6 (0.5×10^6 cells) or RAG2^KO mice (0.4×10^6). Olaparib was administered daily intraperitoneally (50 mg/kg, 4% DMSO) on days 3-13. Tumors were measured with Vernier calipers and volume calculated as (length×width^2)/2. Mice were sacrificed when tumors reached ˜1500 mm^3 or if distressed.

With CO/C1=C\C(C)=C\[C@@H](C)[C@@H](O)[C@@H](C)C/C(C)=C/C=C/[C@H](OC)[C@@H]([C@@H](C)[C@@H](O)[C@H](C)[C@@]2(O)C[C@@H](O)[C@H](C)[C@@H](C(C)C)O2)OC1=O [Bafilomycin A1] as the molecule, how does the Chk2 accumulation (Chk2) read?
The Chk2 accumulation was “led to Chk2 accumulation”.

What does the source list for Cc1cnc(NC(=O)Nc2cc(Br)c(C)cc2OC[C@@H]2CNCCO2)cn1 [rabusertib]?
cytotoxicity in PD-L1^KO versus control RT4 cells [1]: over 15 fold; sensitivity of PD-L1^KO versus control RT4 cells to the agent [1]: striking cytotoxicity; sensitivity of PD-L1^KO versus control ID8agg cells to the agent ([2]; listed as Chk1i): enhanced sensitivity; sensitivity of PD-L1^lo versus control 4T1 cells to the agent [3]: significantly growth inhibited; also recorded: enhanced sensitivity; cytotoxicity against PD-L1^KO versus control B16 cells [4]: striking cytotoxicity; sensitivity of PD-L1^lo versus CTRL MDA-MB-231 cells [5]: more sensitive; tumor sensitivity to single agent treatment [6]: particularly sensitive; synthetic lethality in induced PD-L1^KO tumors [7]: exhibited synthetic lethality; control of in vivo growth, PD-L1 null versus PD-L1 replete tumors [8]: controlled in vivo growth significantly better; viability of RT4 cells, single agent [9]: expected dose-response toxicity; 4T1 tumors in vivo (4T1 tumors): failed to benefit; PD-L1 after DNA damaging agent (PD-L1): increased PD-L1

How did the “fold more sensitive to gemcitabine, PD-L1^KO versus control cells” value ([1]; RT4 cells) turn out when Nc1ccn([C@@H]2O[C@H](CO)[C@@H](O)C2(F)F)c(=O)n1 [gemcitabine] was run?
The value was 2 fold.

And the “sensitivity of PD-L1^KO versus control RT4 cells to the agent” value [1]?
Its value is “substantially lower viability”.

And the “fold more sensitive to gemcitabine, PD-L1^KO versus control cells” value ([2]; ID8agg cells)?
Its value is 29 fold.

And the “γH2AX following treatment, PD-L1^KO versus control cells” value (γH2AX in RT4 cells)?
The value was “markedly elevated; also recorded: accumulated more γH2AX”.

And the “γH2AX following treatment, PD-L1^KO versus control cells” value (γH2AX in ID8agg cells)?
Its value is “markedly elevated”.

What about the “PD-L1 after DNA damaging agent” value (PD-L1) of the same molecule?
Its value is “increased PD-L1”.

Which results are given for C#Cc1cccc(Nc2ncnc3cc(OCCOC)c(OCCOC)cc23)c1 [erlotinib]?
olaparib activity in combination (ID8agg cells; FIG. 46A): Olaparib activity is seen with erlotinib; PD-L1 depletion over time (ID8agg cells; previous western, 24 hours, but not at 48 hours): only depletes PD-L1 for short periods of time

How did the “sensitivity of PD-L1^KO versus control RT4 cells to the agent” value [1] turn out when O=C(c1cc(Cc2n[nH]c(=O)c3ccccc23)ccc1F)N1CCN(C(=O)C2CC2)CC1 [olaparib] was run?
Its value is “Minimal effects”.

What about the “sensitivity of PD-L1^KO versus control ID8agg cells to the agent” value [2] of the same molecule?
The value was “Minimal effects”.

What about the “sensitivity of PD-L1^KO versus control MB49 cells to the agent” value [10] of the same molecule?
The value was “more sensitive”.

What about the “cytotoxicity against PD-L1^KO versus control B16 cells” value [4] of the same molecule?
The value was “Moderate differences”.

And the “tumor growth and weight after treatment” value [11]?
Its value is “robustly growth inhibited and weighed less”.

What about the “limiting PD-L1^KO B16 tumors” value ([12]; RAG2^KO mice lacking adaptive immunity) of the same molecule?
The value was “ineffective”.

And the “control of PD-L1^KO versus control B16 growth” value ([12]; wild type mice)?
Its value is “significantly more effective”.
